From patent US5068244A, “Benzocyclohexanes and analgesic compositions thereof” (Roussel Uclaf, priority 1988, dated 1991)

Molecular target: T1, opiate receptor K (Cavia porcellus, UniProt P41144)
T1 construct: Membranous sediment preserved at -30° C; and prepared from guinea pig cerbelli were used; from tissue; host or cells: guinea pig cerebellum membranes
Assay: Binding of the opiate receptor K in vitro (displacement of 3H ethylketocyclazocine)
Conditions: guinea pig cerebellum membranes, 3H ethylketocyclazocine 1 nM, Tris pH 7.7, 25° C., 40 minutes; read-out: CI50 (the source's name)
Procedure: Membranous sediment preserved at -30° C. (possibly for 30 days) and prepared from guinea pig cerbelli were used. The sediments were put in suspension in the buffer Tris pH 7.7. Fractions of 2 ml were distributed in hemolysis tubes and ^3 H ethylketocyclazocine 1 nM and the product to be studied were added. The following were determined: the maximum quantity of fixed radioactivity in the presence of ^3 H ethylketocyclazocine alone, the quantity of radioactivity bonded in a non-specific manner in the presence of the tritiated ligand and of an excess (10^-5 M) of the reference product known under the name of U-50488 H and the displacement of specific bonding produced by a dose of 5×10^-5 M of the product to be tested.
These tests were carried out in triplicate and aliquotes of 2 ml were incubated at 25° C. for 40 minutes. After returning to 0° C. for 5 minutes at the end of the incubation, they were filtered with Whatman GF/C filters, rinsed in Tris buffer pH 7.7 and the radioactivity was counted in the presence of scintillating Triton. When the product to be tested displaced the specifically fixed radioactivity by more than 50%, the 50% inhibiting concentration (CI50) was determined by a 7 dose scale. The results of the 50% inhibiting concentration were then expressed in nM. The CI50 was therefore the concentration of the product studied, expressed in nM, necessary to displace 50% of the specifically fixed radioactivity on the receptor studied (LAHTI et al, 1982, Life Sci., Vol. 31, 2257) The results are as follows: […]

T1 sequence (P41144 whole entry): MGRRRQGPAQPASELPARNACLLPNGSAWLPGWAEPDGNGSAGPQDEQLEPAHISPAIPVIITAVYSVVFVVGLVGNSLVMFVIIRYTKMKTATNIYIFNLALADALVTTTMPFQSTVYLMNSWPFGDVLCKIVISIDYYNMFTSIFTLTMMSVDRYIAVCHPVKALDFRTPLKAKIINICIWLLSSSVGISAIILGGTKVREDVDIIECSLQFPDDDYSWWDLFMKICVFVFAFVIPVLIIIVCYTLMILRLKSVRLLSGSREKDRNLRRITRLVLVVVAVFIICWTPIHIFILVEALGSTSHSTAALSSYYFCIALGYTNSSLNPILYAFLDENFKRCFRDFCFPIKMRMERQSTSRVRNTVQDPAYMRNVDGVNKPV

| Structure (SMILES) | IC50 [nM] |
| --- | --- |
| CN(C(=O)Cc1ccc([N+](=O)[O-])cc1)[C@H]1c2ccccc2CC[C@@H]1N1CCCC1 (relative stereo) [Example 2, Trans (±) N-methyl-4-nitro-N-[2-(1-pyrrolidinyl)-1,2,3,4-tetrahydro-1-naphthyl]-benzene acetamide] | 12 |
| CN(C(=O)Cc1cccc2ccccc12)[C@H]1c2ccccc2CC[C@@H]1N1CCCC1 (relative stereo) [Example 3, Trans (±) N-methyl-N-[2-(1-pyrrolidinyl)-1,2,3,4-tetrahydro-1-naphthyl]-1-naphthalene acetamide] | 11 |
| CN(C(=O)Cc1cccc2sccc12)[C@H]1c2ccccc2CC[C@@H]1N1CCCC1 (relative stereo) [Example 20, Trans (±) N-methyl-N-[2-(1-pyrrolidinyl)-1,2,3,4-tetrahydro-1-naphthyl]-4-benzo-[b]-thiophene acetamide] | 3.3 |
